Results: patent publication US9079902B2, “Heteroaryl sodium channel inhibitors” (AMGEN INC., priority 2011, dated 2015)
Where a name gives a salt, the structure may show the parent alone.

Legend:
Nav 1.7 = Nav 1.7 (Homo sapiens (Human), UniProt Q15858); test: Nav 1.7 in vitro assay (IonWorks Quattro population patch-clamp); type: cell-based; conditions: 293 cells stably transfected with Nav 1.7; for IC50: 26th pulse to -20 mV, 5 Hz; for inhibition at 4.9 µM: HEK293
Method: (§1) Nav 1.7 and Nav 1.5 In Vitro Assay
(§2) 293 cells stably transfected with either Nav 1.7 or with Nav 1.5 were recorded in population patch-clamp mode with the IonWorks® Quattro automated electrophysiology system in accordance with the manufacturer's specifications (Molecular Devices, LLC, Sunnyvale, Calif.). Sodium channel currents were measured in response to a train of depolarizations that induced successively greater inactivation.
(§3) Cells were held at −110 mV for three seconds (Nav 1.7) or half a second (Nav 1.5) from a holding voltage of −15 mV, then put through a series of 26 pulses of 150 msec duration to −20 mV at a frequency of 5 Hz. Cells were then left unclamped for a period of 3 to 8 minutes while a single concentration of test compound was added. Cells were then reclamped and put through the same voltage protocol. Current at the end of the 26th pulse to −20 mV was subtracted from the peak current evoked by the 26th pulse to −20 mV to correct for leak current. Percent block was calculated for each concentration in duplicate, and IC50 curves were fitted to percent block as a function of concentration.

Nav 1.5 = Nav 1.5 (Homo sapiens (Human), UniProt Q14524); test: Nav 1.5 in vitro assay (IonWorks Quattro population patch-clamp); type: cell-based; conditions: 293 cells stably transfected with Nav 1.5; 26th pulse to -20 mV, 5 Hz
Method: as §1, §2, §3

Chain of Nav 1.7 (Q15858 whole entry): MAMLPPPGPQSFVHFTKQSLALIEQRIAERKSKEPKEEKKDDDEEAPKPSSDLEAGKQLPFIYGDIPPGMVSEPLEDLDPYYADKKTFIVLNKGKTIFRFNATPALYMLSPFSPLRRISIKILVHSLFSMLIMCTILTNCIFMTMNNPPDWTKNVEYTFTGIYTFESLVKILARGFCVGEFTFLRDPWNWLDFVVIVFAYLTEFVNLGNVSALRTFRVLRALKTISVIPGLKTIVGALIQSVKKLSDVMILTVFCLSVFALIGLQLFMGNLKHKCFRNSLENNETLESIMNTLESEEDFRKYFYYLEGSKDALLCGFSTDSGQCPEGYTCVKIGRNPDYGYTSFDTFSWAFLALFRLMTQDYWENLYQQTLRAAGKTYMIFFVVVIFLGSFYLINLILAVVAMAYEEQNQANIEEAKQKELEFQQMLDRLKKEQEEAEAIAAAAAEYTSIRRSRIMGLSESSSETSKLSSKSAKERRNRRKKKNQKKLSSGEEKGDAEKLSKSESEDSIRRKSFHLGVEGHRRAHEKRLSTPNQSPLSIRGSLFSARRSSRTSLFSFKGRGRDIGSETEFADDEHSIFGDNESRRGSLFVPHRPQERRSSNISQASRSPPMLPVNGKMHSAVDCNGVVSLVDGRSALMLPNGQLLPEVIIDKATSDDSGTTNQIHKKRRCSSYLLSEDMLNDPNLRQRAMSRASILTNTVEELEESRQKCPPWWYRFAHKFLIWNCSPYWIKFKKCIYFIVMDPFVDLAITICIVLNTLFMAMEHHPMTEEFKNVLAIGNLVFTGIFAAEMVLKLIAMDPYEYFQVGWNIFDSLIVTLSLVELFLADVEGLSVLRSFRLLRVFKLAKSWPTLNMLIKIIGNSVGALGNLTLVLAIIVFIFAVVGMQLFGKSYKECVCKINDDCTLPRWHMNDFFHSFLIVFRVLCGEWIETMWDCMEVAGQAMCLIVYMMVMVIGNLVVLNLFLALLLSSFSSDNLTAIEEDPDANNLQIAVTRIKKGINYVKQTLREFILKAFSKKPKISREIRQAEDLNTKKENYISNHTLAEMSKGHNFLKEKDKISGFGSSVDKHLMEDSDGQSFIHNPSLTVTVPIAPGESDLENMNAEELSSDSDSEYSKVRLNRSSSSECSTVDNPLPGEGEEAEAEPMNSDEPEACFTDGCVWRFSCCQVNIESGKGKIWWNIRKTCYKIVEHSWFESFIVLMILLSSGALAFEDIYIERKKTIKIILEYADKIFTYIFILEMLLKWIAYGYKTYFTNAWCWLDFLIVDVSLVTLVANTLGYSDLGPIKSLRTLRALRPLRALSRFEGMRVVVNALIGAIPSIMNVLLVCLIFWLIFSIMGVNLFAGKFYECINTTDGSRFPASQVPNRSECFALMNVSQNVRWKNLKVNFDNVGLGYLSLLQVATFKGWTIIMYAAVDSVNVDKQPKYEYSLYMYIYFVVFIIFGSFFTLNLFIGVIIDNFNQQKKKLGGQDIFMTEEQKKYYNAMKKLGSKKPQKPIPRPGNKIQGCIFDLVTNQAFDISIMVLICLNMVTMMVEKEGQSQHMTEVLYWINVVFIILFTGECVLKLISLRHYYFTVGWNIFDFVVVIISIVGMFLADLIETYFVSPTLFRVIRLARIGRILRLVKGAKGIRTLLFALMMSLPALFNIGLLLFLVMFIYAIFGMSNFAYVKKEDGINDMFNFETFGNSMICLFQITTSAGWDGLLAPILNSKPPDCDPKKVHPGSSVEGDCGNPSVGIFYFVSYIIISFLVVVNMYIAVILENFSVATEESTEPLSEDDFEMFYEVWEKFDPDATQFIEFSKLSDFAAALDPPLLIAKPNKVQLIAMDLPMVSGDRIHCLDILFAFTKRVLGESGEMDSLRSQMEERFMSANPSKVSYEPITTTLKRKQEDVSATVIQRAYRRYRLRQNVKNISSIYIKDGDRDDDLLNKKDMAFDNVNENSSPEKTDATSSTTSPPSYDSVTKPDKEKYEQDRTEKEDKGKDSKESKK
Chain of Nav 1.5 (Q14524 whole entry): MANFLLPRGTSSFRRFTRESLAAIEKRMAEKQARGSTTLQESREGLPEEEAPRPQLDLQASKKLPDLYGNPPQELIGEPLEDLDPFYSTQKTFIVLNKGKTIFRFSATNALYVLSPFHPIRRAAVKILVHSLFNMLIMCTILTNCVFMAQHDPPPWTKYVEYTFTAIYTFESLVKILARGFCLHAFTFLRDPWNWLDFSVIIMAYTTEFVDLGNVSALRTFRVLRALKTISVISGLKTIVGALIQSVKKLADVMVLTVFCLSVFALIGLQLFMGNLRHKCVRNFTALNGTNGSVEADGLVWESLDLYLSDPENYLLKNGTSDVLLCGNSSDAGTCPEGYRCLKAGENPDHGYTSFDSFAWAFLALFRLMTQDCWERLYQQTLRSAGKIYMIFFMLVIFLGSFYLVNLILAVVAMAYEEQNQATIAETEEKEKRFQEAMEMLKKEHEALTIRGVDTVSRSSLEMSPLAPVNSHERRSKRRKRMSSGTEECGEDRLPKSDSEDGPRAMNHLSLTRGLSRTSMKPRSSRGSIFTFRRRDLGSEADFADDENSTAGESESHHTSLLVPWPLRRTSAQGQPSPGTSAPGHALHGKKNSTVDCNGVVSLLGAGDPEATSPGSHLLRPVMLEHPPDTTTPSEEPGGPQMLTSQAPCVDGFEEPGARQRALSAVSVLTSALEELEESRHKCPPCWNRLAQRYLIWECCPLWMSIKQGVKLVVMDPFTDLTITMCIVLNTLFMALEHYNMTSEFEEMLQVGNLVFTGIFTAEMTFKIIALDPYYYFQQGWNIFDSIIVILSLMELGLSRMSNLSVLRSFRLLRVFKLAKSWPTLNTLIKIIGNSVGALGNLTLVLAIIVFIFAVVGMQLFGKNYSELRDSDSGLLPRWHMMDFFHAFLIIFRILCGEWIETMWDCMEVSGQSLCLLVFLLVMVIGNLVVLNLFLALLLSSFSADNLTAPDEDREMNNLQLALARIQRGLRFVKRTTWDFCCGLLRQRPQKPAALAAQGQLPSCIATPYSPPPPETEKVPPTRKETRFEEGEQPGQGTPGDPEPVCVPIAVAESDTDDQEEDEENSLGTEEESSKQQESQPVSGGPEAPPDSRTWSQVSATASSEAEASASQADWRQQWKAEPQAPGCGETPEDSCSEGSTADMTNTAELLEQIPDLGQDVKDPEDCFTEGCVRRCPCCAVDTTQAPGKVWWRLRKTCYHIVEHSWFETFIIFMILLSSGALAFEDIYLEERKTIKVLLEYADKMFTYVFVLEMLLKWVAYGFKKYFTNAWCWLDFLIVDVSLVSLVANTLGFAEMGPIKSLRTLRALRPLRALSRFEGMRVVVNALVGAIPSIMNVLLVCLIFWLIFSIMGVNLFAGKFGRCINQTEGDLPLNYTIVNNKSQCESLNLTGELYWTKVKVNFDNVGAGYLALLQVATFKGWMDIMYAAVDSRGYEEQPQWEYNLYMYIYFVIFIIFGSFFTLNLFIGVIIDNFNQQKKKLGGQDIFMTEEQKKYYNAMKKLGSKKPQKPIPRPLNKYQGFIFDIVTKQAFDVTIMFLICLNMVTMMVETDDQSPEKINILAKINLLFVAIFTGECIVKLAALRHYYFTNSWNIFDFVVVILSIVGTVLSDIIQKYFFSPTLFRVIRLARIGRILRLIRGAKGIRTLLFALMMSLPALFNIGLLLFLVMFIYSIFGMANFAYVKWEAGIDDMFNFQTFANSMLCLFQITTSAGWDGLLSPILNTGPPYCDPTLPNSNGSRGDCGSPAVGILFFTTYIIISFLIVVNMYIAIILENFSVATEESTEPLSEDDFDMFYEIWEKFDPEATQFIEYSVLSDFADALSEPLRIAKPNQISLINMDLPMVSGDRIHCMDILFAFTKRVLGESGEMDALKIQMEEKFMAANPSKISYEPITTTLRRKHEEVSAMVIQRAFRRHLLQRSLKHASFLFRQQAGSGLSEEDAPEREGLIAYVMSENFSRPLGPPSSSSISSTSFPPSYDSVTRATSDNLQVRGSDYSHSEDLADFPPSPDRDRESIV

Compound | IC50 (Nav 1.7) [µM] | IC50 (Nav 1.5) [µM] | inhibition at 4.9 µM (Nav 1.7) [%]
Cn1nccc1-c1cc(C(F)(F)F)ccc1-c1cn(C)c2cc(S(=O)(=O)Nc3nccs3)ccc12 [Example 11, 1-Methyl-3-(2-(1-Methyl-1H-Pyrazol-5-yl)-4-(Trifluoromethyl)Phenyl)-N-(Thiazol-2-yl)-1H-Indole-6-Sulfonamide] | 3.19 | > 10 | 
Cn1nccc1-c1cc(C(F)(F)F)ccc1-c1cn(C)c2cc(S(=O)(=O)Nc3ccncn3)ccc12 [Example 12, 1-Methyl-3-(2-(1-Methyl-1H-Pyrazol-5-yl)-4-(Trifluoromethyl)Phenyl)-N-(Pyrimidin-4-yl)-1H-Indole-6-Sulfonamide] | 0.835 | > 10 | 
Cn1nccc1-c1cc(C(F)(F)F)ccc1-c1cn(C)c2cc(S(=O)(=O)Nc3nncs3)ccc12 [Example 13, 1-Methyl-3-(2-(1-Methyl-1H-Pyrazol-5-yl)-4-(Trifluoromethyl)Phenyl)-N-(1,3,4-Thiadiazol-2-yl)-1H-Indole-6-Sulfonamide] | 1.86 | > 10 | 
CC#Cc1cncc(-c2cn(C)c3cc(S(=O)(=O)Nc4ncns4)ccc23)c1 [Example 14, 1-Methyl-3-(5-(Prop-1-Yn-1-yl)Pyridin-3-yl)-N-(1,2,4-Thiadiazol-5-yl)-1H-Indole-6-Sulfonamide] | 3.29 | > 10 | 
Cn1cc(-c2cc(-c3ccncc3)cc(C(F)(F)F)c2)c2ccc(S(=O)(=O)Nc3ncns3)cc21 [Example 15, 1-Methyl-3-(3-(Pyridin-4-yl)-5-(Trifluoromethyl)Phenyl)-N-(1,2,4-Thiadiazol-5-yl)-1H-Indole-6-Sulfonamide] | 1.54 | > 10 | 
Cn1cc(-c2ccc(C(F)(F)F)cc2C#N)c2ccc(S(=O)(=O)Nc3ncns3)cc21 [Example 16, 3-(2-Cyano-4-(Trifluoromethyl)Phenyl)-1-Methyl-N-(1,2,4-Thiadiazol-5-yl)-1H-Indole-6-Sulfonamide] | 0.551 | > 10 | 
Cn1cc(-c2cc(Br)cc(C(F)(F)F)c2)c2ccc(S(=O)(=O)Nc3ncns3)cc21 [Example 17, 3-(3-Bromo-5-(Trifluoromethyl)Phenyl)-1-Methyl-N-(1,2,4-Thiadiazol-5-yl)-1H-Indole-6-Sulfonamide] | 9.11 | > 10 | 
Cn1cc(-c2ccc(C(F)(F)F)cc2-c2ccncc2)c2ccc(S(=O)(=O)Nc3ncns3)cc21 [Example 18, 1-Methyl-3-(2-(Pyridin-4-yl)-4-(Trifluoromethyl)Phenyl)-N-(1,2,4-Thiadiazol-5-yl)-1H-Indole-6-Sulfonamide] | 0.05 | > 10 | 
Cn1cc(-c2ccc(C(F)(F)F)cc2-c2ccn(C3CNC3)n2)c2ccc(S(=O)(=O)Nc3ncns3)cc21 [Example 19, 3-(2-(1-(Azetidin-3-yl)-1H-Pyrazol-3-yl)-4-(Trifluoromethyl)Phenyl)-1-Methyl-N-(1,2,4-Thiadiazol-5-yl)-1H-Indole-6-Sulfonamide Hydrochloride] | 0.263 | > 10 | 
Cc1sc(NS(=O)(=O)c2ccc3c(-c4ccc(C(F)(F)F)cc4-c4ccnn4C)cn(C)c3c2)nc1C(F)(F)F [Example 20, 1-Methyl-3-(2-(1-Methyl-1H-Pyrazol-5-yl)-4-(Trifluoromethyl)Phenyl)-N-(5-Methyl-4-(Trifluoromethyl)Thiazol-2-yl)-1H-Indole-6-Sulfonamide] |  | > 10 | 36.2
Cn1cc(-c2ccc(C(F)(F)F)cc2-c2cn[nH]c2)c2ccc(S(=O)(=O)Nc3ncns3)cc21 [Example 21, 3-(2-(1H-Pyrazol-4-yl)-4-(Trifluoromethyl)Phenyl)-1-Methyl-N-(1,2,4-Thiadiazol-5-yl)-1H-Indole-6-Sulfonamide] | 0.0375 | > 10 | 
Cn1cc(-c2ccc(C(F)(F)F)cc2C2=CCNCC2)c2ccc(S(=O)(=O)Nc3ncns3)cc21 [Example 22, 1-Methyl-3-(2-(1,2,3,6-Tetrahydropyridin-4-yl)-4-(Trifluoromethyl)Phenyl)-N-(1,2,4-Thiadiazol-5-yl)-1H-Indole-6-Sulfonamide] | 0.0425 | > 10 | 
Cn1cc(-c2ccc(C(F)(F)F)cc2Cl)c2ccc(S(=O)(=O)Nc3ncns3)cc21 [Example 23, 3-(2-Chloro-4-(Trifluoromethyl)Phenyl)-1-Methyl-N-(1,2,4-Thiadiazol-5-yl)-1H-Indole-6-Sulfonamide] | 0.687 | > 10 | 
Cn1nccc1-c1cc(C(F)(F)F)ccc1-c1c[nH]c2nc(S(=O)(=O)Nc3ncns3)ccc12 [Example 25, 3-(2-(1-Methyl-1H-Pyrazol-5-yl)-4-(Trifluoromethyl)Phenyl)-N-(1,2,4-Thiadiazol-5-yl)-1H-Pyrrolo[2,3-B]Pyridine-6-Sulfonamide] | 6.7 | 8.55 | 
Cn1nccc1-c1cc(C(F)(F)F)ccc1-c1cn(C)c2nc(S(=O)(=O)Nc3ncns3)ccc12 [Example 26, 1-Methyl-3-(2-(1-Methyl-1H-Pyrazol-5-yl)-4-(Trifluoromethyl)Phenyl)-N-(1,2,4-Thiadiazol-5-yl)-1H-Pyrrolo [2,3-B]Pyridine-6-Sulfonamide] | 1.02 | > 10 | 
CC(=O)n1cc(-c2ccc(C(F)(F)F)cc2-c2ccnn2C)c2ccc(S(=O)(=O)Nc3ncns3)nc21 [Example 27, 1-Acetyl-3-(2-(1-Methyl-1H-Pyrazol-5-yl)-4-(Trifluoromethyl)Phenyl)-N-(1,2,4-Thiadiazol-5-yl)-1H-Pyrrolo [2,3-B]Pyridine-6-Sulfonamide] | 0.674 | > 10 | 
Cn1nccc1-c1cc(C(F)(F)F)ccc1-c1cn(C)c2cc(S(=O)(=O)Nc3nc(Br)ns3)ccc12 [Example 50, N-(3-Bromo-1,2,4-Thiadiazol-5-Yl)-1-Methyl-3-(2-(1-Methyl-1H-Pyrazol-5-Yl)-4-(Trifluoromethyl)Phenyl)-1H-Indole-6-Sulfonamide] | 1.38 | > 10 | 
Cn1cc(-c2ccncc2Cl)c2ccc(S(=O)(=O)Nc3ncns3)cc21 [Example 51, 3-(3-Chloropyridin-4-Yl)-1-Methyl-N-(1,2,4-Thiadiazol-5-Yl)-1H-Indole-6-Sulfonamide] | 8.53 | > 10 | 
Cn1cc(-c2cccc3c2CCNC3)c2ccc(S(=O)(=O)Nc3ncns3)cc21 [Example 53, 1-Methyl-3-(1,2,3,4-Tetrahydroisoquinolin-5-Yl)-N-(1,2,4-Thiadiazol-5-Yl)-1H-Indole-6-Sulfonamide Hydrochloride] | 0.292 | > 10 | 
Cn1cc(-c2cccc3c2CNCC3)c2ccc(S(=O)(=O)Nc3ncns3)cc21 [Example 54, 1-Methyl-3-(1,2,3,4-Tetrahydroisoquinolin-8-Yl)-N-(1,2,4-Thiadiazol-5-Yl)-1H-Indole-6-Sulfonamide Hydrochloride] | 1.63 | > 10 | 
Cn1cc(-c2cnn(C3CC3)c2)c2ccc(S(=O)(=O)Nc3ncns3)cc21 [Example 55, 3-(1-Cyclopropyl-1H-Pyrazol-4-Yl)-1-Methyl-N-(1,2,4-Thiadiazol-5-Yl)-1H-Indole-6-Sulfonamide] |  | > 10 | 20.5
COc1cc(-c2cn(C)c3cc(S(=O)(=O)Nc4ncns4)ccc23)c(F)cn1 [Example 56, 3-(5-Fluoro-2-Methoxypyridin-4-Yl)-1-Methyl-N-(1,2,4-Thiadiazol-5-Yl)-1H-Indole-6-Sulfonamide] |  | > 10 | 20.8
Cn1cc(-c2ccc(C(F)(F)F)cc2)c2ccc(S(=O)(=O)Nc3ncns3)cc21 [Example 57, 1-Methyl-N-(1,2,4-Thiadiazol-5-Yl)-3-(4-(Trifluoromethyl)Phenyl)-1H-Indole-6-Sulfonamide] |  | > 10 | 23.3
Cn1cc(-c2ccccc2OC(F)(F)F)c2ccc(S(=O)(=O)Nc3ncns3)cc21 [Example 58, 1-Methyl-N-(1,2,4-Thiadiazol-5-Yl)-3-(2-(Trifluoromethoxy)Phenyl)-1H-Indole-6-Sulfonamide] |  | > 10 | 25.1
Cn1cc(-c2cc3ccccc3o2)c2ccc(S(=O)(=O)Nc3ncns3)cc21 [Example 59, 3-(Benzofuran-2-Yl)-1-Methyl-N-(1,2,4-Thiadiazol-5-Yl)-1H-Indole-6-Sulfonamide] |  | > 10 | 36.2
COc1ccc(-c2cn(C)c3cc(S(=O)(=O)Nc4ncns4)ccc23)cc1C#N [Example 60, 3-(3-Cyano-4-Methoxyphenyl)-1-Methyl-N-(1,2,4-Thiadiazol-5-Yl)-1H-Indole-6-Sulfonamide] |  | > 10 | 24.7
COc1ccc(-c2cn(C)c3cc(S(=O)(=O)Nc4ncns4)ccc23)cn1 [Example 61, 3-(6-Methoxypyridin-3-Yl)-1-Methyl-N-(1,2,4-Thiadiazol-5-Yl)-1H-Indole-6-Sulfonamide] |  | > 10 | 37.2
Cn1nccc1-c1cc(Cl)ccc1-n1cnc2cc(S(=O)(=O)Nc3ncns3)ccc21 [Example 62, 1-(4-Chloro-2-(1-Methyl-1H-Pyrazol-5-Yl)Phenyl)-N-(1,2,4-Thiadiazol-5-Yl)-1H-Benzo[D]Imidazole-5-Sulfonamide] | 2.68 | > 10 | 
Cn1nccc1-c1cc(C(F)(F)F)ccc1-n1cnc2cc(S(=O)(=O)Nc3ncns3)ccc21 [Example 63, 1-(2-(1-Methyl-1H-Pyrazol-5-Yl)-4-(Trifluoromethyl)Phenyl)-N-(1,2,4-Thiadiazol-5-Yl)-1H-Benzo[D]Imidazole-5-Sulfonamide] | 1.13 | > 10 | 
